According to patent publication US20220009906A1, “ISOINDOLIN-1-ONE DERIVATIVES USEFUL AS GRK2 INHIBITORS” (priority 2020, published 2022):
Several values for one entry are separate records, joined by “and”; a condition that tells them apart may be missing. Equal entries are not always repeated.

Legend:
[1] = biological target: T1, GRK2 (Homo sapiens, UniProt P25098); assay: hGRK2 LANCE Ultra In Vitro Assay; format: biochemical
T1 sequence (P25098 1-689): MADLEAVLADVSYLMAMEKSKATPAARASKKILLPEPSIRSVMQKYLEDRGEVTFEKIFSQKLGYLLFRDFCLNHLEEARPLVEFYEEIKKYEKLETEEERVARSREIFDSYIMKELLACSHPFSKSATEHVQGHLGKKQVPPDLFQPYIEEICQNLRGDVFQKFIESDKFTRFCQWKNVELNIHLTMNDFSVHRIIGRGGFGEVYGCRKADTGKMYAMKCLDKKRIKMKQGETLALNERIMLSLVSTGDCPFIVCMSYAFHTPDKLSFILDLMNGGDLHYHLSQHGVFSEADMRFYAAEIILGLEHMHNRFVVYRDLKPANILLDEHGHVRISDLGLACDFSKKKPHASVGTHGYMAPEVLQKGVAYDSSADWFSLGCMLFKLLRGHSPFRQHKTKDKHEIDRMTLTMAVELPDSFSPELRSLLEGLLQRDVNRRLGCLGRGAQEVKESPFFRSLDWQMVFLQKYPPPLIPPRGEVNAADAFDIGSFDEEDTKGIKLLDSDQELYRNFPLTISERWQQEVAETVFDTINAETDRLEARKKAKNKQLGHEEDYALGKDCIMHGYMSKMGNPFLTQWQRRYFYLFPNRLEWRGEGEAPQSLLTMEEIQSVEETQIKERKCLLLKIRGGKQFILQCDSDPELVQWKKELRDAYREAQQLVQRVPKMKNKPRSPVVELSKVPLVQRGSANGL
Summary of the method: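 TR-FRET kinase assay with 10 nM GRK2 preincubated 30 min with compound, then 200 nM ULight-peptide and 30 or 600 μM ATP in HEPES pH 7.5, 10 mM MgCl2, 1% DMSO; 120 or 60 min at ambient temperature respectively.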

[2] = biological target: T1, GRK2; assay: GRK2 Transcreener Assay; format: biochemical; conditions: Biological Example 2 GRK2 Transcreener IC50 (μM), 10 nM GRK2; 10 μM ATP; 150 μM peptide substrate; multiple measurements listed individually
Experimental: Positive and negative control wells received an equal volume of DMSO. The final DMSO concentration in the assay is 1%.
The plate was placed in centrifuge equipped with a spin-bucket rotor and spun for 1 min at 1000 rpm.
GRK2 enzymatic reactions were initiated with the addition of 2 μL/well of 50 nM GRK2 in assay buffer. Plates were centrifuged for 1 min at 1000 rpm. For negative control wells, the order of reagent addition was reversed: 10 μL/well ADP detection mix (see below) was added first, followed by the addition of 2 μL/well of the GRK2 solution. Reaction mixtures were incubated at ambient temperature for 2 hours. Final concentrations of reagents in the assays were as follows:
Following incubation, the reactions were quenched with 10 μL/well of the Transcreener ADP detection mix. […] The plates were then centrifuged for 1 min at 1000 rpm.
Fluorescence polarization values of the reaction mixtures were read on a Safire plate reader after a 60 min incubation at ambient temperature. Excitation wavelength=590 nm; emission wavelength=650 nm.
The fluorescence polarization data were converted to % activity as follows:
% activity=(sample−NC)/(PC−NC)*100
where NC is the mean of negative control (ADP detection mix added prior to GRK2 addition), and PC is the mean of positive control (GRK2 reaction without inhibitor). IC50 values are determined from a 4-parameter fit, using the following equation:
Y=Bottom+(Top−Bottom)/(1+10^((Log IC50−X)*Hill slope))
where X=log10 of the compound concentration.

[3] = Biological Example 1 GRK2 Lancer IC50 (μM), 10 nM GRK2, 30 or 600 μM ATP (not stated which), multiple measurements listed individually

Row | SMILES | IC50 [2] | IC50 [1, 3] [µM] | IC50 [1] [µM]
1 | COc1cccc(CN2C(=O)c3cc(-c4cn[nH]c4)ccc3C2CC#N)c1 (centres unmarked) [Compound 15] | < 0.005 µM | 0.005 | –
2 | COc1cccc([C@@H](C)N2Cc3ccc(-c4cn[nH]c4)cc3C2=O)c1 [Compound 13, (R)-2-(1-(3-methoxyphenyl)ethyl)-6-(1H-pyrazol-4-yl)isoindolin-1-one] | < 0.005 µM | – | < 0.005
3 | Cc1cccc([C@@H](C)N2Cc3ccc(-c4cn[nH]c4)cc3C2=O)n1 [Compound 25] | 0.546 µM | – | –
4 | COc1cccc(CN2C(=O)c3cc(-c4cn[nH]c4)ccc3C23CC(O)C(O)C3)c1 (centres unmarked) [Compound 8, 3,4-dihydroxy-2′-(3-methoxybenzyl)-5′-(1H-pyrazol-4-yl)spiro[cyclopentane-1,1′-isoindolin]-3′-one] | 0.009 µM | – | –
5 | CNC(=O)c1ccc(-c2ccc3c(c2)C(=O)N(Cc2cccc(OC)c2)C3)cn1 [Compound 23, 5-(2-(3-methoxybenzyl)-3-oxoisoindolin-5-yl)-N-methylpicolinamide] | > 50 µM | – | –
6 | CC(C)NC(=O)c1cccc(CN2Cc3ccc(-c4cn[nH]c4)cc3C2=O)c1 [Compound 19, N-isopropyl-3-[[1-oxo-6-(1H-pyrazol-4-yl)isoindolin-2-yl]methyl]benzamide] | < 0.005 µM | < 0.005 | –
7 | CCOc1cccc(CN2Cc3ccc(-c4cn[nH]c4)cc3C2=O)c1 [Compound 2, 2-(3-ethoxybenzyl)-6-(1H-pyrazol-4-yl)isoindolin-1-one] | 0.009 µM | – | –
8 | CS(=O)(=O)Nc1cccc(CN2Cc3ccc(-c4ccnc5[nH]ccc45)cc3C2=O)c1 [Compound 10] | 0.719 µM | – | –
9 | O=C1c2cc(-c3cn[nH]c3)ccc2CN1Cc1cccc(F)c1 [Compound 16, 2-(3-Fluorobenzyl)-6-(1H-pyrazol-4-yl)isoindolin-1-one] | 0.017 µM | – | –
10 | C[C@H](c1cccc2ccccc12)N1Cc2ccc(-c3cn[nH]c3)cc2C1=O [Compound 24] | 1.46 µM | – | –

The next lines start with results.

Row | IC50 [2] | SMILES | IC50 [1, 3] [µM] | IC50 [1] [µM]
11 | 0.383 µM | CCOc1cccc(CN2Cc3ccc(-c4ccnc(N)n4)cc3C2=O)c1 [Compound 11] | – | –
12 | 0.005 µM | COc1cccc(CN2C(=O)c3cc(-c4cn[nH]c4)ccc3C2(C)C)c1 [Compound 7, 2-(3-methoxybenzyl)-3,3-dimethyl-6-(1H-pyrazol-4-yl)isoindolin-1-one] | – | –
13 | < 0.005 µM and 0.005 µM | COc1cccc(CN2Cc3ccc(-c4cn[nH]c4)cc3C2=O)c1 [Compound 1, 2-(3-methoxybenzyl)-6-(1H-pyrazol-4-yl)isoindolin-1-one] | – | –
14 | < 0.005 µM | COc1cccc(CN2C(=O)c3cc(-c4cn[nH]c4)ccc3C23CCNCC3)c1 [Compound 14, 2-(3-methoxybenzyl)-5-(1H-pyrazol-4-yl)spiro[isoindoline-1,4′-piperidin]-3-one] | – | –
15 | 0.139 µM | O=C(O)c1cccc(CN2Cc3ccc(-c4cn[nH]c4)cc3C2=O)c1 [Compound 18] | – | –
16 | 0.305 µM | CC(C)(C)OC(=O)c1cccc(CN2Cc3ccc(-c4cn[nH]c4)cc3C2=O)c1 [Compound 164] | – | –
17 | 0.054 µM | COc1cccc(CN2C(=O)c3cc(-c4c[nH]nn4)ccc3C2(C)C)c1 [Compound 21, 2-(3-methoxybenzyl)-3,3-dimethyl-6-(1H-1,2,3-triazol-4-yl)isoindolin-1-one] | – | –
18 | > 50 µM | COC(=O)c1cccc([C@@H](C)N2Cc3ccc(-c4cn[nH]c4)cc3C2=O)c1 [Compound 165] | – | –
19 | 0.02 µM | COc1cccc(CN2Cc3ccc(-c4c[nH]nn4)cc3C2=O)c1 [Compound 20, 2-(3-methoxybenzyl)-6-(1H-1,2,3-triazol-4-yl)isoindolin-1-one] | – | –
20 | 0.01 µM | COc1cccc(CN2C(=O)c3cc(-c4cn[nH]c4)ccc3C23CC=CC3)c1 [Compound 6, 2′-(3-methoxybenzyl)-5′-(1H-pyrazol-4-yl)spiro[cyclopentane-1,1′-isoindolin]-3-en-3′-one] | – | –
21 | 0.048 µM | COc1cccc(CN2C(=O)c3cc(-c4ccnc(N)n4)ccc3C2(C)C)c1 [Compound 17, 6-(2-aminopyrimidin-4-yl)-2-(3-methoxybenzyl)-3,3-dimethylisoindolin-1-one] | – | –
22 | 1.2 µM | NCc1cccc(CN2Cc3ccc(-c4cn[nH]c4)cc3C2=O)c1 [Compound 22, 2-(3-(Aminomethyl)benzyl)-6-(1H-pyrazol-4-yl)isoindolin-1-one] | – | –
23 | 0.291 µM | CS(=O)(=O)Nc1cccc(CN2Cc3ccc(-c4cn[nH]c4)cc3C2=O)c1 [Compound 9] | – | –
